From US20140066385A1, “METHOD FOR TREATING CANCER BY COMBINED USE OF DRUGS” (Astellas Pharma Inc., priority 2011, published 2014)

Tested on: tumor tissues in human lung cancer cell line Calu-6 tumor-bearing mice
Experiment: Example 8: immunochemical staining of iNOS, macrophage (F4/80) and nitrotyrosine in Calu-6 tumor tissue
Format: in vivo, nude mice
Excerpt: The dose of FK330 is expressed in terms of the weight of a simple substance (non-hydrate). A paclitaxel injectable preparation (paclitaxel injection liquid “Sawai”) was purchased from Sawai Pharmaceutical Co., Ltd., and was used as paclitaxel. Rat anti-mouse F4/80 antigen monoclonal antibody, rabbit anti-iNOS polyclonal antibody, and rabbit anti-nitrotyrosine antibody were respectively purchased from AbD Serotec (Oxford, UK), Santa Cruz Biotechnology, Inc. (Santa Cruz, Calif., US), and Millipore Corp. (Billerica, Mass., USA) and used.
FK330 was suspended (20 mg/mL) in a 0.5% aqueous methyl cellulose solution (0.5% MC) and orally administered. Paclitaxel was prepared with physiological saline for injection (Otsuka Pharmaceutical Group) to a concentration of 1 mg/mL at the time of use.
Human lung cancer-derived Calu-6 (HTB-56) was obtained from American Type
Culture Collection (VA, USA). The cells were cultured under the conditions of 37° C. and 5% CO2 by using RPMI1640 medium containing 10% heat-inactivated fetal bovine serum (FBS). The cells were harvested with trypsin and were suspended in PBS at 6×10^7 cells/mL, and the suspension was mixed with an equal amount of Matrigel (trade name) Basement Membrane Matrix (manufactured by Becton Dickinson Co., Bedford, Mass., USA).
Five-week old male nude mice (CAnN Cg-Foxn1nu/CrlCrlj(nu/nu)) were purchased from Charles River Laboratories Japan, Inc. (Japan, Kanagawa). The animals were raised under specific pathogen-free (SPF) conditions throughout the test period by feeding standard feedstuff and drinking water. The cultured cells were subcutaneously inoculated into the dorsal region of the nude mice at a concentration of 3×10^6 cells/0.1 mL/mouse. Nude mice which had the tumor volumes (major axis×[minor axis]^2×0.5) ranging from 136.8 mm^3 to 248.5 mm^3 were assigned by using SAS to minimize the fluctuation in the tumor volume between the groups and within the group.
Drug administration was initiated from the first day of administration (Day 0). The respective groups (n=5) were treated as follows. FK330 was orally gavaged in an amount of 5 mL/kg from Day 0 to Day 6, and paclitaxel was intravenously administered through the tail vein in an amount of 10 mL/kg from Day 0 to Day 5.
FK330 single administration group: FK330 100 mg/kg bid (200 mg/kg/day, from Day 0 to Day 6)
Paclitaxel single administration group: Paclitaxel 10 mg/kg/day (from Day 0 to Day 5)
Combined use group: FK330 100 mg/kg bid (200 mg/kg/day, from Day 0 to Day 6)+paclitaxel 10 mg/kg/day (from Day 0 to Day 5)
FK330 was orally gavaged (5 mL/kg) twice a day at an interval of 6 to 8 hours. Paclitaxel was administered by intravenous bolus injection (10 mL/kg) through the tail vein 1 to 4 hours after the administration of FK330.
On Day 6, the tumor tissues were harvested from the mice. Immersion fixation was carried out at 4° C. for 12 hours with a 4% para-formaldehyde-phosphate buffer solution (Wako Pure Chemical Industries, Ltd.). After the tissue fixation, according to the conventional method, sucrose replacement was carried out using 10%, 15% and 20% sucrose/phosphate buffer solutions in a stepwise manner at 4° C. After completion of the replacement, the cancer tissues were embedded in O.C.T. Compound (Toronto Research Chemicals, Inc., Toronto, Canada), and frozen blocks were prepared with dry ice/acetone and stored at −80° C.
Frozen sections at 5 μm thickness were prepared by a cryostat (Sakura Finetech Japan Co., Ltd.) and were air-dried. The dried frozen sections were washed with a 4% para-formaldehyde-phosphate buffer solution, and then in order to inactivate the endogenous peroxidase activity, the sections were treated for 30 minutes with 0.3% hydrogen peroxide/methanol. Mouse macrophage, iNOS and nitrotyrosine staining was carried out by the following procedure. In regard to the iNOS and nitrotyrosine staining, antigen retrieval was carried out by microwave irradiation (3 minutes/500 W) before the immunochemical staining. […]

[1] = combined use: FK330 100 mg/kg bid p.o. Day 0 to Day 6 + paclitaxel 10 mg/kg/day, Day 6
[2] = paclitaxel 10 mg/kg/day i.v. Day 0 to Day 5 alone, tumor harvested Day 6

In the case of `O=C(/C=C/c1ccc(Cl)cc1)N[C@@H](Cc1ccccn1)C(=O)NCC(=O)N1CCC(Oc2cc(C(F)(F)F)ncn2)CC1` [FK330, N^2-[(2E)-3-(4-chlorophenyl)-2-propenoyl]-N-[2-oxo-2-(4-{[6-(trifluoromethyl)pyrimidin-4-yl]oxy}piperidin-1-yl)ethyl]-3-pyridin-2-yl-L-alaninamide], the “iNOS protein expression in the tumor” value [1] is reported as “did not affect”, the “macrophage infiltration in the tumor” value [1] is reported as “did not affect” and the “nitrotyrosine production in the tumor” value [1] is reported as “suppressed”.

In the case of `CC(=O)O[C@H]1C(=O)[C@@]2(C)[C@H]([C@H](OC(=O)c3ccccc3)[C@]3(O)C[C@H](OC(=O)[C@H](O)[C@@H](NC(=O)c4ccccc4)c4ccccc4)C(C)=C1C3(C)C)[C@]1(OC(C)=O)CO[C@@H]1C[C@@H]2O` [paclitaxel, reference compound], the “amount of nitrotyrosine (major end-product of NO) in the tumor tissue” value [2] is reported as “increased”, the “iNOS protein expression in the tumor tissue” value [2] is reported as “very clearly accentuated” and the “infiltration of macrophages (F4/80) in the tumor tissue” value [2] is reported as “clearly recognized”.
